# Assay results taken from PubChem BioAssay (NCI).
#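 A five-concentration, 48-hour dose response in 96-well plates underlies each endpoint, interpolated linearly between surrounding concentrations. GI50: concentration for 50% inhibition of growth. Definition used: TGI = concentration required for complete inhibition of growth.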
# What was measured:
# Experiment in all cases: DTP human tumour cell line panel, 48 h
# EKVX NSCLC = system: EKVX NSCLC
# PC-3 prostate = system: PC-3 prostate
# MOLT-4 leukemia = system: MOLT-4 leukemia
# SK-MEL-28 melanoma = system: SK-MEL-28 melanoma
# NCI-H522 lung = system: NCI-H522 lung
# RXF 393 renal = system: RXF 393 renal
# HCT-116 colon = system: HCT-116 colon
# SNB-75 CNS = system: SNB-75 CNS
# RPMI-8226 leukemia = system: RPMI-8226 leukemia
# U251 CNS = system: U251 CNS
# MCF7 breast = system: MCF7 breast
# IGROV1 ovarian = system: IGROV1 ovarian
# MDA-MB-435 = system: MDA-MB-435
# SF-539 CNS = system: SF-539 CNS
# SF-295 CNS = system: SF-295 CNS
# M14 melanoma = system: M14 melanoma
# BT-549 breast = system: BT-549 breast
# NCI-H23 lung = system: NCI-H23 lung
# CAKI-1 renal = system: CAKI-1 renal
# A549 NSCLC = system: A549 NSCLC
# UACC-257 melanoma = system: UACC-257 melanoma
# HL-60(TB) leukemia = system: HL-60(TB) leukemia
# UO-31 renal = system: UO-31 renal
# MALME-3M melanoma = system: MALME-3M melanoma
# 786-0 renal = system: 786-0 renal
# HT29 colon = system: HT29 colon
# OVCAR-3 ovarian = system: OVCAR-3 ovarian
# HOP-62 NSCLC = system: HOP-62 NSCLC
# HOP-92 NSCLC = system: HOP-92 NSCLC
structure (smiles),measurement,setting,value
COc1cc2c3c(n(CCCNC4CCCCC4)c(=O)c2cc1OC)-c1cc2c(cc1C3=O)OCO2,GI50,EKVX NSCLC,14.3 µM
same,TGI,EKVX NSCLC,> 63.8 µM
same,GI50,PC-3 prostate,16.8 µM
same,TGI,PC-3 prostate,85.6 µM
same,GI50,MOLT-4 leukemia,0.354 µM
same,TGI,MOLT-4 leukemia,3.93 µM
same,GI50,SK-MEL-28 melanoma,22.7 µM
same,TGI,SK-MEL-28 melanoma,> 55.7 µM
same,GI50,NCI-H522 lung,10.8 µM
same,TGI,NCI-H522 lung,59.2 µM
same,GI50,RXF 393 renal,9.22 µM
same,TGI,RXF 393 renal,37.8 µM
same,GI50,HCT-116 colon,1.59 µM
same,TGI,HCT-116 colon,3.03 µM
same,GI50,SNB-75 CNS,11.9 µM
same,TGI,SNB-75 CNS,25.5 µM
same,GI50,RPMI-8226 leukemia,1.82 µM
same,TGI,RPMI-8226 leukemia,6.39 µM
same,GI50,U251 CNS,7.85 µM
same,TGI,U251 CNS,51.6 µM
same,GI50,MCF7 breast,1.2 µM
same,TGI,MCF7 breast,2.84 µM
same,GI50,IGROV1 ovarian,15.4 µM
same,TGI,IGROV1 ovarian,> 100 µM
same,GI50,MDA-MB-435,14.7 µM
same,TGI,MDA-MB-435,34.3 µM
same,GI50,SF-539 CNS,4.57 µM
same,TGI,SF-539 CNS,8.91 µM
same,GI50,SF-295 CNS,12.1 µM
same,TGI,SF-295 CNS,> 58.1 µM
same,GI50,M14 melanoma,18.3 µM
same,TGI,M14 melanoma,39.2 µM
same,GI50,BT-549 breast,15.2 µM
same,TGI,BT-549 breast,31.9 µM
same,GI50,NCI-H23 lung,1.86 µM
same,TGI,NCI-H23 lung,4.22 µM
same,GI50,CAKI-1 renal,7.69 µM
same,TGI,CAKI-1 renal,22.9 µM
same,GI50,A549 NSCLC,5.87 µM
same,TGI,A549 NSCLC,18.5 µM
same,GI50,UACC-257 melanoma,18.9 µM
same,TGI,UACC-257 melanoma,43 µM
same,GI50,HL-60(TB) leukemia,1.62 µM
same,TGI,HL-60(TB) leukemia,4.87 µM
same,GI50,UO-31 renal,13.3 µM
same,TGI,UO-31 renal,27.3 µM
same,GI50,MALME-3M melanoma,14.4 µM
same,TGI,MALME-3M melanoma,29.1 µM
same,GI50,786-0 renal,1.73 µM
same,TGI,786-0 renal,3.19 µM
same,GI50,HT29 colon,1.82 µM
same,TGI,HT29 colon,3.66 µM
same,GI50,OVCAR-3 ovarian,10.8 µM
same,TGI,OVCAR-3 ovarian,33 µM
same,GI50,HOP-62 NSCLC,15.8 µM
same,TGI,HOP-62 NSCLC,43.3 µM
same,GI50,HOP-92 NSCLC,15.5 µM
